In patent US5554631A, “5-pyrrolyl-6-halogeno-2-pyridylmethylsulfinyl benzimidazole derivatives” (Il-Yang Pharm. Co., Ltd., priority 1994, dated 1996):

Assays:
[1] = in vivo; conditions: mouse, in vivo, po
Method: (§1) Five weeks aged ICR (male, female) mouse were pre-bred in the breeding cage for one week and then the animals showing a smooth gain in body weight were randomly selected and used in this test. The amount to be administered to the test animals was established on the basis of the maximum dose of 5,000 mg/kg with the common ratio of 1.5.
(§2) The test compounds in a powder were suspended in 0.5% methylcellulose and administered per oral using a lml syringe. The other specific conditions for administration are described in the following.
(§3) In the above test, the control group received only 0.5% methylcellulose.
(§4) (1) Clinical symptoms and death of test animals
(§5) The clinical symptoms and death of test animals caused by the test compounds were recorded immediately after administration of the test compounds and during the overall test period.

[2] = system: ICR (male, female) mouse; test: in vivo; conditions: mouse
Method: as §1, §2, §3, §4, §5

[3] = system: acidity; test: Inhibition of acidity (total acid output), Shay method; format: in vivo, SD male rats; conditions: 5 h; for Volume (inhibition of acidity) / Inhibition rate, acidity: intraduodenal, rat; for Inhibition rate, acidity: vs normal group
Method: (§6) The specific test methods are as follows.
(§7) SD male rats (200±20 g) were fasted for 24 hours, except for water, and then anesthesized with ether. The abdomen of rats was incised and then the pylorus was ligated. The test compounds were suspended or dissolved in […] (carboxymethylcellulose) and injected into duodenum. After the abdomen was suctured, the rats were allowed to stand for 5 hours and then sacrificed with ether. The stomach was removed from rats and the gastric juices were collected. The gastric juice was centrifuged with 10,000×g for 10 minutes at 4° C. to remove the precipitate. The amount of gastric juice and acidity were determined using pH 7.0 end point assay with 0.02N NaOH and then the total acid output was calculated.

[4] = system: gastric and duodenal ulcers; test: Anti-ulcer effect / pharmacological efficacy (general statements); conditions: in words
[5] = molecular target: T1, H^+ /K^+ -ATPase (Oryctolagus cuniculus, UniProt P27112); test: Inhibition of H+/K+-ATPase enzyme activity in vitro; format: biochemical, rabbit; conditions: rabbit gastric microsomal H+/K+-ATPase, 5 min pre-incubation at 37° C., 4 mM ATP; read-out: IC50
T1 construct: The gastric mucous membrane was removed from rabbit; from tissue; host or cells: rabbit gastric mucosa, microsomal fraction (77,000 xg)
Method: The gastric mucous membrane was removed from rabbit and then centrifuged with 77,000 xg using a ultracentrifuge to separate the microsomal fraction which was used as the source of H^+ /K^+ -ATPase enzyme for this test. 60 μg of H^+ /K^+ -ATPase was pre-incubated with the sample (the compound according to the present invention) for 5 minutes at 37° C. and then 4 mM ATP as the substrate and 4 mM Mg^++, 20 mM K^+ as the cofactor were added thereto. Then, the amount of inorganic phosphorus thus produced was determined using a spectrophotometer at 660 nm and converted into the amount of protein according to Lowry method. […]

[6] = system: gastric juice secretion; test: Inhibition of gastric juice secretion, Shay method; format: in vivo, SD male rats; conditions: 5 h; for Gastric juice volume / Inhibition rate, gastric juice secretion: intraduodenal, rat; for Inhibition rate, gastric juice secretion: vs normal group
Method: as §6, §7

T1 sequence (P27112 2-1035 limits assumed): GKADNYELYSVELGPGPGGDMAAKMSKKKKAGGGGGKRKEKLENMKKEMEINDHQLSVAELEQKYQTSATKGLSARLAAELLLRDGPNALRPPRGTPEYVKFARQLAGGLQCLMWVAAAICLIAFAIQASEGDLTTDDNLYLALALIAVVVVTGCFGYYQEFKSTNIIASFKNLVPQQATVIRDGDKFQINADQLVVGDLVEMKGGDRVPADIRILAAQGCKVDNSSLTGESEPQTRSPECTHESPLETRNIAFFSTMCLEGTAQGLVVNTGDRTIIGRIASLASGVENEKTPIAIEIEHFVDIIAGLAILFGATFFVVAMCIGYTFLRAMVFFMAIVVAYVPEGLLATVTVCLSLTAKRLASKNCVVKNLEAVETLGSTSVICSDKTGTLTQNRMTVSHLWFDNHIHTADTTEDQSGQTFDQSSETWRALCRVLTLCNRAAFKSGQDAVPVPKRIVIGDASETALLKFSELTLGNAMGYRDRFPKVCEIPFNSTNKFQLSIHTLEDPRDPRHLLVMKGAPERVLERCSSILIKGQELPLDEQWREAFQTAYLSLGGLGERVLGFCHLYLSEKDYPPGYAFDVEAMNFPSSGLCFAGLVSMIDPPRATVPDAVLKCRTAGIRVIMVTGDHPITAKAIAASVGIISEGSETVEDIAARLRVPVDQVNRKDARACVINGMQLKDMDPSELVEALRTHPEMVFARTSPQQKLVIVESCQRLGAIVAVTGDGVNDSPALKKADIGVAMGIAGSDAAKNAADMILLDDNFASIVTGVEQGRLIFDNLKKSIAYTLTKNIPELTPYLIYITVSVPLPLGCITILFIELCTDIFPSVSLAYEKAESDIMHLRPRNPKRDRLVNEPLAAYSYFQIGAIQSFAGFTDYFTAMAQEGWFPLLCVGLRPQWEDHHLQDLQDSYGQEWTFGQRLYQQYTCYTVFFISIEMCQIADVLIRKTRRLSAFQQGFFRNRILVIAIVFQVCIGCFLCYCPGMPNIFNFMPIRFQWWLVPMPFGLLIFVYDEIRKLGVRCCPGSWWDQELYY
T1 sequence (P18597 whole entry partner): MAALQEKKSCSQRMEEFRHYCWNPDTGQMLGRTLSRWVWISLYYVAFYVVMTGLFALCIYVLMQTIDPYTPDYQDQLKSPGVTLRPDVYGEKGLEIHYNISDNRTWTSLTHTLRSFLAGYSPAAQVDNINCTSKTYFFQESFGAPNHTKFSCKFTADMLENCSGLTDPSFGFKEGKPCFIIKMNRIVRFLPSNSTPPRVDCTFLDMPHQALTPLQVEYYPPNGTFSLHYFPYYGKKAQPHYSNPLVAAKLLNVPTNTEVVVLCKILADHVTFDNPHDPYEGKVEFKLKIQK

## COc1ccnc(C[S+]([O-])c2nc3cc(-n4cccc4)c(F)cc3[nH]2)c1C (stereo not drawn) [Compound 2, 2-[[(4-methoxy-3-methyl)-2-pyridinyl]methylsulfinyl]-5-(1H-pyrrol-1-yl)-6-fluoro-1H-benzimidazole]
[1]
  LD50: > 5000 mg/kg
[2]; clinical symptoms, death and autopsy results, oral
  Acute toxicity (in words): very low as in Omeprazole
[2]; in vivo
  Safety (conclusion): very safe compound
[2]; in vivo, po
  LD50: > 5,000.0 mg/kg BW
  Visual autopsy view: No specific abnormal autopsy view was observed
[3]; 3 mg/kg
  Volume (inhibition of acidity): 34.60 ± 8.12 μEq/hr
  Inhibition rate, acidity: 40.62%
[3]; 10 mg/kg
  Volume (inhibition of acidity): 14.28 ± 4.28 μEq/hr
  Inhibition rate, acidity: 75.35%
[3]; 30 mg/kg
  Volume (inhibition of acidity): 5.72 ± 0.59 μEq/hr
  Inhibition rate, acidity: 90.13%
[3]; Rattus norvegicus
  ED50: 4.04 mg/kg
[4]
  Anti-ulcer effect compared with Omeprazole: anti-ulcer effect is similar to that of Omeprazole
[5]
  IC50: 4.1 µM
[6]; 3 mg/kg
  Gastric juice volume: 2.11 ± 0.36 ml/100 g BW
  Inhibition rate, gastric juice secretion: 35.28%
[6]; 10 mg/kg
  Gastric juice volume: 1.52 ± 0.19 ml/100 g BW
  Inhibition rate, gastric juice secretion: 53.37%
[6]; 30 mg/kg
  Gastric juice volume: 1.03 ± 0.10 ml/100 g BW
  Inhibition rate, gastric juice secretion: 68.40%
[6]; Rattus norvegicus
  ED50: 8.18 mg/kg
